The values below are quoted from earlier work in patent publication US8318201B2, “Method of stabilizing diarylvinylene compound” (Kyowa Hakko Kirin Co., Ltd., priority 2003, dated 2012).

For this series the following is noted: Bioorg. Med. Chem. Lett., vol. 7, p. 2349-2352 (1997); particularly unstable in a state of a solution.

Each structure is given as a SMILES string.

As for `CCn1c(=O)c2c(nc(/C=C/c3ccc(OC)c(OC)c3)n2C)n(CC)c1=O` [Compound 1, (E)-8-(3,4-dimethoxystyryl)-1,3-diethyl-7-methyl-3,7-dihydro-1H-purine-2,6-dione], the “stability under irradiation of light (isomerization at the vinylene moiety)” value is reported as “unstable particularly under irradiation of light”.
